Laboratory results as given in patent US10167262B2, “Herbicidal substituted 3-arylpyrazoles” (FMC CORPORATION, priority 2014, dated 2019).
Like-named read-outs stand apart in the source and are kept apart here.

Tests used:
Type in all cases: in vivo
[1] = tested on: johnsongrass (Sorghum halepense); test: Test C pre-/postemergence greenhouse test, plant response rating 0-100; settings: Sorghum halepense; for pest or weed control at 62 g/ha: 62 g ai/ha; for pest or weed control at 125 g/ha: 125 g ai/ha; for pest or weed control at 250 g/ha: 250 g ai/ha
Procedure, shortened: (§1)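 Plants were scored visually against controls 13–15 days after treatment on a 0–100 scale, 100 meaning complete control. Test chemicals, formulated in surfactant-containing non-phytotoxic solvent, went preemergence onto seeds in loam–sand blend or postemergence onto 1- to 4-leaf plants (2–18 cm) grown in peat-based mix.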

[2] = tested on: winter wheat (Triticum aestivum); test: as above; settings: Triticum aestivum; for plant injury at 62 g/ha: 62 g ai/ha; for plant injury at 125 g/ha: 125 g ai/ha; for plant injury at 250 g/ha: 250 g ai/ha
Procedure, shortened: as §1

[3] = tested on: soybean (Glycine max); test: as above; settings: Glycine max; for plant injury at 62 g/ha: 62 g ai/ha; for plant injury at 125 g/ha: 125 g ai/ha; for plant injury at 250 g/ha: 250 g ai/ha
Procedure, shortened: as §1

[4] = tested on: large (Lg) crabgrass (Digitaria sanguinalis); test: as above; settings: Digitaria sanguinalis; for pest or weed control at 62 g/ha: 62 g ai/ha; for pest or weed control at 125 g/ha: 125 g ai/ha; for pest or weed control at 250 g/ha: 250 g ai/ha
Procedure, shortened: as §1

[5] = tested on: yellow nutsedge (Cyperus esculentus); test: as above; settings: Cyperus; for pest or weed control at 62 g/ha: 62 g ai/ha; for pest or weed control at 125 g/ha: 125 g ai/ha; for pest or weed control at 250 g/ha: 250 g ai/ha
Procedure, shortened: as §1

[6] = tested on: lambsquarters (Chenopodium album); test: as above; settings: Chenopodium album; for pest or weed control at 62 g/ha: 62 g ai/ha; for pest or weed control at 125 g/ha: 125 g ai/ha; for pest or weed control at 250 g/ha: 250 g ai/ha
Procedure, shortened: as §1

[7] = tested on: giant foxtail (Setaria faberii); test: as above; settings: Setaria faberi; for pest or weed control at 62 g/ha: 62 g ai/ha; for pest or weed control at 125 g/ha: 125 g ai/ha; for pest or weed control at 250 g/ha: 250 g ai/ha
Procedure, shortened: as §1

[8] = tested on: blackgrass (Alopecurus myosuroides); test: as above; settings: Alopecurus myosuroides; for pest or weed control at 62 g/ha: 62 g ai/ha; for pest or weed control at 125 g/ha: 125 g ai/ha; for pest or weed control at 250 g/ha: 250 g ai/ha
Procedure, shortened: as §1

[9] = tested on: galium (catchweed bedstraw, Galium aparine); test: as above; settings: Galium; for pest or weed control at 62 g/ha: 62 g ai/ha; for pest or weed control at 125 g/ha: 125 g ai/ha; for pest or weed control at 250 g/ha: 250 g ai/ha
Procedure, shortened: as §1

[10] = tested on: morningglory (Ipomoea coccinea); test: as above; settings: Ipomoea; for pest or weed control at 62 g/ha: 62 g ai/ha; for pest or weed control at 125 g/ha: 125 g ai/ha; for pest or weed control at 250 g/ha: 250 g ai/ha
Procedure, shortened: as §1

[11] = tested on: chickweed (common chickweed, Stellaria media); test: Test C postemergence greenhouse test, plant response rating 0-100; settings: Stellaria media, post-emergence
From the text: (§2) At the same time, plants selected from these crop and weed species and also winter barley (Hordeum vulgare), bermudagrass (Cynodon dactylon), downy bromegrass (Bromus tectorum), canarygrass (Phalaris minor), cocklebur (common cocklebur, Xanthium strumarium), woolly cupgrass (Eriochloa villosa), deadnettle (henbit deadnettle, Lamium amplexicaule), green foxtail (Setaria viridis), goosegrass (Eleusine indica), surinam grass (Brachiaria decumbens), windgrass (Apera spica-venti), chickweed (common chickweed, Stellaria media), kochia (Kochia scoparia), and wild oat (Avena fatua), were planted in pots containing Redi-Earth® planting medium (Scotts Company, 14111 Scottslawn Road, Marysville, Ohio 43041) comprising spaghnum peat moss, vermiculite, wetting agent and starter nutrients and treated with postemergence applications of test chemicals formulated in the same manner. Plants ranged in height from 2 to 18 cm (1- to 4-leaf stage) for postemergence treatments. Treated plants and controls were maintained in a greenhouse for 13 to 15 days, after which time all species were compared to controls and visually evaluated. Plant response ratings, summarized in Table C, are based on a scale of 0 to 100 where 0 is no effect and 100 is complete control. A dash (-) response means no test result.

[12] = tested on: wild oat (Avena fatua); test: as above; settings: Avena fatua, post-emergence
From the text: as §2

[13] = tested on: kochia (Kochia scoparia); test: as above; settings: Bassia scoparia, post-emergence
From the text: as §2

[14] = post-emergence, Postemergence, read-out: Plant response rating (0 to 100), Johnsongrass
[15] = post-emergence, Postemergence, scale 0 to 100
[16] = pre-emergence, Preemergence, read-out: Plant response rating, Johnsongrass
[17] = pre-emergence, Preemergence, 500 g ai/ha
[18] = post-emergence, Postemergence, read-out: Plant response rating (0 to 100), Wheat
[19] = pre-emergence, Preemergence, read-out: Plant response rating, Wheat
[20] = post-emergence, Postemergence, read-out: Plant response rating (0 to 100), Soybean
[21] = pre-emergence, Preemergence, read-out: Plant response rating, Soybean
[22] = post-emergence, Postemergence, read-out: Plant response rating (0 to 100), Crabgrass, Large
[23] = pre-emergence, Preemergence, read-out: Plant response rating, Crabgrass, Large
[24] = post-emergence, Postemergence, read-out: Plant response rating (0 to 100), Nutsedge, Yellow
[25] = pre-emergence, Preemergence, read-out: Plant response rating, Nutsedge, Yellow
[26] = post-emergence, Postemergence, read-out: Plant response rating (0 to 100), Lambsquarters
[27] = pre-emergence, Preemergence, read-out: Plant response rating, Lambsquarters
[28] = post-emergence, Postemergence, read-out: Plant response rating (0 to 100), Foxtail, Giant
[29] = pre-emergence, Preemergence, read-out: Plant response rating, Foxtail, Giant
[30] = pre-emergence, Preemergence, read-out: Plant response rating, Blackgrass
[31] = post-emergence, Postemergence, read-out: Plant response rating (0 to 100), Galium
[32] = pre-emergence, Preemergence, read-out: Plant response rating, Galium
[33] = post-emergence, Postemergence, read-out: Plant response rating (0 to 100), Morningglory
[34] = pre-emergence, Preemergence, read-out: Plant response rating, Morningglory

Clc1cc(Cl)cc(-c2n[nH]cc2C(=NN2CCCC2)c2ccccc2)c1 [Compound 30, N-[[3-(3,5-dichlorophenyl)-1H-pyrazol-4-yl]phenylmethylene]-1-pyrrolidinamine]
pest or weed control at 62 g/ha [1, 14]: 0% | pest or weed control at 125 g/ha [1, 14]: 0% | pest or weed control at 250 g/ha [1, 15]: 0% | pest or weed control at 62 g/ha [1, 16]: 0% | pest or weed control at 125 g/ha [1, 16]: 0% | pest or weed control at 250 g/ha ([1]; pre-emergence, Preemergence): 0% | pest or weed control at 500 g/ha [1, 17]: 0% | plant injury at 62 g/ha [2, 18]: 0% | plant injury at 125 g/ha [2, 18]: 0% | plant injury at 250 g/ha [2, 15]: 0% | plant injury at 62 g/ha [2, 19]: 0% | plant injury at 125 g/ha [2, 19]: 0% | plant injury at 250 g/ha ([2]; pre-emergence, Preemergence): 0% | plant injury at 62 g/ha [3, 20]: 0% | plant injury at 125 g/ha [3, 20]: 0% | plant injury at 250 g/ha [3, 15]: 0% | plant injury at 62 g/ha [3, 21]: 0% | plant injury at 125 g/ha [3, 21]: 0% | plant injury at 250 g/ha ([3]; pre-emergence, Preemergence): 0% | plant injury at 500 g/ha [3, 17]: 0% | pest or weed control at 31 g/ha ([4]; post-emergence, Postemergence, 31 g ai/ha, read-out: Plant response rating (0 to 100), Crabgrass, Large): 0% | pest or weed control at 62 g/ha [4, 22]: 0% | pest or weed control at 125 g/ha [4, 22]: 0% | pest or weed control at 250 g/ha [4, 15]: 0% | pest or weed control at 62 g/ha [4, 23]: 0% | pest or weed control at 125 g/ha [4, 23]: 0% | pest or weed control at 250 g/ha ([4]; pre-emergence, Preemergence): 0% | pest or weed control at 500 g/ha [4, 17]: 0% | pest or weed control at 62 g/ha [5, 24]: 0% | pest or weed control at 125 g/ha [5, 24]: 0% | pest or weed control at 250 g/ha [5, 15]: 0% | pest or weed control at 62 g/ha [5, 25]: 0% | pest or weed control at 125 g/ha [5, 25]: 0% | pest or weed control at 250 g/ha ([5]; pre-emergence, Preemergence): 0% | pest or weed control at 500 g/ha [5, 17]: 0% | pest or weed control at 62 g/ha [6, 26]: 60% | pest or weed control at 125 g/ha [6, 26]: 80% | pest or weed control at 250 g/ha [6, 15]: 100% | pest or weed control at 62 g/ha [6, 27]: 100% | pest or weed control at 125 g/ha [6, 27]: 100% | pest or weed control at 250 g/ha ([6]; pre-emergence, Preemergence): 100% | pest or weed control at 500 g/ha [6, 17]: 100% | pest or weed control at 31 g/ha ([7]; post-emergence, Postemergence, 31 g ai/ha, read-out: Plant response rating (0 to 100), Foxtail, Giant): 0% | pest or weed control at 62 g/ha [7, 28]: 0% | pest or weed control at 125 g/ha [7, 28]: 0% | pest or weed control at 250 g/ha [7, 15]: 0% | pest or weed control at 62 g/ha [7, 29]: 0% | pest or weed control at 125 g/ha [7, 29]: 0% | pest or weed control at 250 g/ha ([7]; pre-emergence, Preemergence): 0% | pest or weed control at 500 g/ha [7, 17]: 0% | pest or weed control at 31 g/ha ([8]; post-emergence, Postemergence, 31 g ai/ha, read-out: Plant response rating (0 to 100), Blackgrass): 0% | pest or weed control at 62 g/ha ([8]; post-emergence, Postemergence, read-out: Plant response rating (0 to 100), Blackgrass): 0% | pest or weed control at 125 g/ha ([8]; post-emergence, Postemergence, scale 0 to 100, read-out: Plant response rating, Blackgrass): 0% | pest or weed control at 250 g/ha [8, 15]: 0% | pest or weed control at 62 g/ha [8, 30]: 0% | pest or weed control at 125 g/ha [8, 30]: 0% | pest or weed control at 250 g/ha ([8]; pre-emergence, Preemergence): 0% | pest or weed control at 500 g/ha [8, 17]: 0% | pest or weed control at 31 g/ha ([9]; post-emergence, Postemergence, 31 g ai/ha, read-out: Plant response rating (0 to 100), Galium): 0% | pest or weed control at 62 g/ha [9, 31]: 0% | pest or weed control at 125 g/ha [9, 31]: 5% | pest or weed control at 250 g/ha [9, 15]: 5% | pest or weed control at 62 g/ha [9, 32]: 0% | pest or weed control at 125 g/ha [9, 32]: 0% | pest or weed control at 250 g/ha ([9]; pre-emergence, Preemergence): 5% | pest or weed control at 500 g/ha [9, 17]: 10% | pest or weed control at 62 g/ha [10, 33]: 0% | pest or weed control at 125 g/ha [10, 33]: 0% | pest or weed control at 250 g/ha [10, 15]: 0% | pest or weed control at 62 g/ha [10, 34]: 10% | pest or weed control at 125 g/ha [10, 34]: 15% | pest or weed control at 250 g/ha ([10]; pre-emergence, Preemergence): 15% | pest or weed control at 500 g/ha [10, 17]: 15% | pest or weed control at 31 g/ha ([11]; 31 g ai/ha): 100% | pest or weed control at 62 g/ha ([11]; 62 g ai/ha): 100% | pest or weed control at 125 g/ha ([11]; 125 g ai/ha): 100% | pest or weed control at 250 g/ha ([11]; 250 g ai/ha, scale 0 to 100): 100% | pest or weed control at 62 g/ha ([12]; 62 g ai/ha): 0% | pest or weed control at 125 g/ha ([12]; 125 g ai/ha): 0% | pest or weed control at 250 g/ha ([12]; 250 g ai/ha, scale 0 to 100): 0% | pest or weed control at 62 g/ha ([13]; 62 g ai/ha): 40% | pest or weed control at 125 g/ha ([13]; 125 g ai/ha): 85% | pest or weed control at 250 g/ha ([13]; 250 g ai/ha, scale 0 to 100): 98%
